Biological target: T1, PpCHS (Physcomitrium patens, UniProt Q2VAZ3)
T1 construct: gene PHYPA_029015; homodimer ~120 kDa
Assay: HPLC of pyrone product, UV […] nm
Assay type: biochemical
Conditions: hexanoyl-CoA co-substrate, 20 mM phosphate pH 7, 30 °C, 2 h; extender substrate; Trx-fusion enzyme

T1 sequence (Q2VAZ3 entry or part of it): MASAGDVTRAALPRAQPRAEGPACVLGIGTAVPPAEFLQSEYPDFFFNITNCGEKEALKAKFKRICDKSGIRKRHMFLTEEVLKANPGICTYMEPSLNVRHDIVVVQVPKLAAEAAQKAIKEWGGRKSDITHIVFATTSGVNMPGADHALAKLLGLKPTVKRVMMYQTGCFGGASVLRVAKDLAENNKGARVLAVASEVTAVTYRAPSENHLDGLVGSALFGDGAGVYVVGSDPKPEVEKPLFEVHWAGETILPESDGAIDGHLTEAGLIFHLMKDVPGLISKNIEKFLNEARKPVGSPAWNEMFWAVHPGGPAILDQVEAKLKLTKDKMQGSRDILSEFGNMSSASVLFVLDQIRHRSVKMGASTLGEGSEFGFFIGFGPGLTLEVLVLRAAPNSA

CC(C)(COP(=O)(O)OP(=O)(O)OC[C@H]1O[C@@H](n2cnc3c(N)ncnc32)[C@H](O)[C@@H]1OP(=O)(O)O)[C@@H](O)C(=O)NCCC(=O)NCCSC(=O)CC(=O)O [malonyl-CoA]
HPLC of pyrone product, UV 280 nm: HPLC Analysis of the reaction of hexanoyl-CoA and malonyl-CoA with PpCHS

From publication PMC3431822, “Enzymatic Properties and Mutational Studies of Chalcone Synthase from Physcomitrella patens” (International Journal of Molecular Sciences, 2012)
